Target: human IDO1 (Homo sapiens, UniProt P14902)
Assay: Assessment of human IDO-1 inhibitory activity in HEK cells (human IDO1/HEK293 cells, kynurenine read-out with Ehrlich reagent, absorbance 490 nm)
Type: cell-based
Parameters: expressed in transfected cells
Conditions: HEK Human IDO-1 cellular assay
Outline: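 Kynurenine output from stably IDO1-transfected HEK293 cells (10,000/well, phenol red-free RPMI, 10% FBS) after 20 h compound exposure at 37 °C. The reaction was stopped with 0.2% TCA and heated 30 min at 50 °C, then the supernatant was mixed with Ehrlich reagent and read at 490 nm. IC50 was set against DMSO and a 500 nM reference standard as 0 and 100% inhibition.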

Chain of human IDO1 (P14902 whole entry): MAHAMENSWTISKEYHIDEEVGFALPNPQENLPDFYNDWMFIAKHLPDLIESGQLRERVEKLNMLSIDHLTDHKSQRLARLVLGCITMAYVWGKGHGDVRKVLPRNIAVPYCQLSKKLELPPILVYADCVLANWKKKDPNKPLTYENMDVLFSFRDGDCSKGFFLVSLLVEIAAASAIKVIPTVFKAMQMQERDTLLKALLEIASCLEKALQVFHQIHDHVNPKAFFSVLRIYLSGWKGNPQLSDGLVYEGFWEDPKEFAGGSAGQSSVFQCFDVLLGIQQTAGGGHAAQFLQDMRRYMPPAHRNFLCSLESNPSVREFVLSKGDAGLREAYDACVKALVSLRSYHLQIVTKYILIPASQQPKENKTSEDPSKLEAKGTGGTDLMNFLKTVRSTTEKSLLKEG

Going from `Cc1ccc(CC(=O)Nc2cc(C(C)CC(=O)O)ccc2N(CC(C)C)CC(C)C)cc1` (single isomer, unassigned) [Example 953, 3-(4-(Diisobutylamino)-3-(2-(p-tolyl)acetamido)phenyl)butanoic acid] to `CCC(CC(=O)O)c1ccc(N(CC(C)C)CC(C)C)c(NC(=O)Cc2ccc(C)cc2)c1` (single isomer, unassigned) [Example 1103 E1, 3-(4-(Diisobutylamino)-3-(2-(p-tolyl)acetamido)phenyl)pentanoic acid], the IC50 falls from over 50 nM to under 5 nM. The second is the more potent here.

`CCC(CC(=O)O)c1ccc(N(CC(C)C)C2CCCCC2)c(NC(=O)Cc2ccc(Cl)cc2F)c1` (racemic) [Example 1085] and `CCC(CC(=O)O)c1ccc(N(CC(C)C)C2CCCCC2)c(Nc2ccc(F)cc2)c1` (single isomer, unassigned) [Example 311, 3-(4-(cyclohexyl(isobutyl)amino)-3-((4-fluorophenyl)amino)phenyl)pentanoic acid] cannot be ordered by IC50: under 5 nM for the first, under 5 nM for the second.

`CCOc1ccc(NC(=O)Nc2cc([C@H](CC)CC(=O)O)ccc2N(CC)C2CCOCC2)cc1` (single isomer, unassigned) [Example 528] and `CC[C@H](CC(=O)O)c1ccc(N(CC)C2CCOCC2)c(NC(=O)Nc2ccc(F)cc2)c1` (single isomer, unassigned) [Example 527] cannot be ordered by IC50: under 50 nM for the first, under 50 nM for the second.

`CCC(CC(=O)O)c1cc(F)c(N(CC(C)C)CC(C)C)c(Nc2ccc(Cl)cc2)c1` (single isomer, unassigned) [Example 99, 3-(3-((4-chlorophenyl)amino)-4-(diisobutylamino)-5-fluorophenyl)pentanoic acid] and `COCC(CC(=O)O)c1cc(F)c(N(CC(C)C)CC(C)C)c(NC(=O)Cc2ccc(C)cc2)c1` (single isomer, unassigned) [Example 1177, 3-(4-(Diisobutylamino)-3-fluoro-5-(2-(p-tolyl)acetamido)phenyl)-4-methoxybutanoic acid] cannot be ordered by IC50: under 5 nM for the first, under 50 nM for the second.

Compared with `CCC(CC(=O)O)c1ccc(N(CC(C)C)C2CCCCC2)c(Nc2ccc3c(c2)OC(F)(F)O3)c1` (single isomer, unassigned) [Example 315, 3-(4-(Cyclohexyl(isobutyl)amino)-3-((2,2-difluorobenzo[d][1,3]dioxol-5-yl)amino)phenyl)pentanoic acid], `CC[C@@H](CC(=O)O)c1ccc(N(CC(C)C)C2CCS(=O)(=O)CC2)c(Nc2ccc3c(c2)OC(F)(F)O3)c1` (single isomer, unassigned) [Example 220] is lower in IC50: over 50 nM for the first, under 5 nM for the second. The second is the more potent here.

`CC[C@H](CC(=O)O)c1ccc(N(CC)C2CCOCC2)c(Nc2cnc(OCC3CC3)nc2)c1` (single isomer, unassigned) [Example 520] and `CCc1cnc(Nc2cc([C@@H](CC)CC(=O)O)ccc2N(CC)C2CCOCC2)nc1` (single isomer, unassigned) [Example 457] cannot be ordered by IC50: under 5 nM for the first, under 50 nM for the second.

`CC[C@H](CC(=O)O)c1ccc(N(CC)C2CCOCC2)c(NC(=O)Nc2cc(C)on2)c1` (single isomer, unassigned) [Example 534] and `CCN(c1ccc([C@H](COC)CC(=O)O)cc1NC(=O)Nc1cc(C)on1)C1CCOCC1` (single isomer, unassigned) [Example 439] cannot be ordered by IC50: over 50 nM for the first, over 50 nM for the second.

`CCN(c1ccc(C(C)CC(=O)O)cc1NC(=O)Nc1ccccc1F)C1CCOCC1` (single isomer, unassigned) [Example 640, 3-(4-(ethyl(tetrahydro-2H-pyran-4-yl)amino)-3-(3-(2-fluorophenyl)ureido)phenyl) butanoic acid] and `CCN(c1ccc(C(CC(=O)O)c2ccccc2)cc1NC(=O)Nc1cc(C)on1)C1CCOCC1` (single isomer, unassigned) [Example 587, 3-(4-(ethyl(tetrahydro-2H-pyran-4-yl)amino)-3-(3-(5-methylisoxazol-3-yl)ureido)phenyl)-3-phenylpropanoic acid] cannot be ordered by IC50: over 50 nM for the first, over 50 nM for the second.

`CCC(CC(=O)O)c1cc(NC(=O)Nc2ccc3c(c2)OCO3)c(N(CC(C)C)C2CCCCC2)cc1F` (racemic) [Example 1110, (±)-3-(5-(3-(Benzo[d][1,3]dioxol-5-yl)ureido)-4-(cyclohexyl(isobutyl)amino)-2-fluorophenyl)pentanoic acid] and `CCC(CC(=O)O)c1ccc(N(CC(C)C)C2CCCCC2)c(Nc2ccc3c(c2)OCCO3)c1` (single isomer, unassigned) [Example 301, 3-(4-(cyclohexyl(isobutyl)amino)-3-((2,3-dihydrobenzo[b][1,4]dioxin-6-yl)amino)phenyl) pentanoic acid] cannot be ordered by IC50: under 5 nM for the first, under 50 nM for the second.

`CCN(c1ccc([C@@H](COC)CC(=O)O)cc1NC(=O)Nc1ccc(C)cc1)C1CCOCC1` (single isomer, unassigned) [Example 433] and `CC[C@H](CC(=O)O)c1ccc(N(CC(C)(C)O)C2CCOCC2)c(NC(=O)Nc2ccc(C)cc2)c1` (single isomer, unassigned) [Example 208] cannot be ordered by IC50: over 50 nM for the first, over 50 nM for the second.

`CC[C@H](CC(=O)O)c1ccc(N(CC)C2CCOCC2)c(NC(=O)Nc2ccc(Cl)nc2)c1` (single isomer, unassigned) [Example 532] and `CCCN(c1ccc(C(CC)CC(=O)O)cc1NC(=O)Nc1ccc(OC)cc1F)C1CCOCC1` (racemic) [Example 609, 3-(3-(3-(2-Fluoro-4-methoxyphenyl)ureido)-4-(propyl(tetrahydro-2H-pyran-4-yl)amino)phenyl)pentanoic acid] cannot be ordered by IC50: under 50 nM for the first, under 5 nM for the second.

Going from `CC[C@H](CC(=O)O)c1ccc(N(CC(C)C)C2CCS(=O)(=O)CC2)c(Nc2ccc3sc(C)nc3c2)c1` [Example 214, 3-(4-((1,1-Dioxidotetrahydro-2H-thiopyran-4-yl)(isobutyl)amino)-3-((2-methylbenzo[d]thiazol-5-yl)amino)phenyl)pentanoic acid] to `CC[C@@H](CC(=O)O)c1ccc(N(CC(C)C)C2CCS(=O)(=O)CC2)c(NC(=O)Nc2ccc(C)cc2)c1` (single isomer, unassigned) [Example 210], the IC50 rises from under 50 nM to over 50 nM.

First: COCC(CC(=O)O)c1ccc(N(CC(C)C)C2CCOCC2)c(NC(=O)Nc2ccc(OC)cc2F)c1 (single isomer, unassigned) [Example 1221, 3-(3-(3-(2-Fluoro-4-methoxyphenyl)ureido)-4-(isobutyl(tetrahydro-2H-pyran-4-yl)amino)phenyl)-4-methoxybutanoic]
Second: CC[C@H](CC(=O)O)c1ccc(N2CCOC[C@@H]2C(C)C)c(NC(=O)Nc2ccc(OC)cc2F)c1 (single isomer, unassigned) [Example 87]
The IC50 of the first is lower: under 50 nM for the first, over 50 nM for the second.

`CC[C@@H](CC(=O)O)c1ccc(N2CCOC[C@@H]2C(C)C)c(Nc2ccc(C#N)cc2)c1` (single isomer, unassigned) [Example 83] and `CCC(CC(=O)O)c1ccc(N(CC)C2CCCOC2)c(Nc2ccc(C#N)cc2)c1` (single isomer, unassigned) [Example 70, 3-(3-((4-cyanophenyl)amino)-4-(ethyl(tetrahydro-2H-pyran-3-yl)amino)phenyl)pentanoic acid] cannot be ordered by IC50: under 50 nM for the first, under 5 nM for the second.

`CC(C)CN(c1ccc(C(CC(=O)O)C2CC2)cc1NC(=O)Nc1cncnc1)C1CCOCC1` (racemic) [Example 1206, (+/−)-3-Cyclopropyl-3-(4-(isobutyl(tetrahydro-2H-pyran-4-yl)amino)-3-(3-(pyrimidin-5-yl)ureido)phenyl)propanoic acid] and `COCC(CC(=O)O)c1ccc(N(CC(C)C)CC(C)C)c(NC(=O)Nc2cncnc2)c1` (racemic) [Example 996, (+/−)-3-(4-(Diisobutylamino)-3-(3-(pyrimidin-5-yl)ureido)phenyl)-4-methoxybutanoic acid] cannot be ordered by IC50: over 50 nM for the first, over 50 nM for the second.

`CCC(CC(=O)O)c1ccc(N(CC)C2CCS(=O)(=O)CC2)c(Nc2ccc(C#N)cc2)c1` (single isomer, unassigned) [Example 337, 3-(3-((4-cyanophenyl)amino)-4-((1,1-dioxidotetrahydro-2H-thiopyran-4-yl)(ethyl)amino)phenyl) pentanoic acid] and `CC[C@@H](CC(=O)O)c1ccc(N(CC(C)(C)O)C2CCOCC2)c(Nc2ccc(Cl)cc2)c1` (single isomer, unassigned) [Example 198] cannot be ordered by IC50: under 5 nM for the first, under 5 nM for the second.

`CCC(CC(=O)O)c1cc(NC(=O)Nc2cnc(OC)nc2)c(N(CC(C)C)CC(C)C)cc1F` (single isomer, unassigned) [Example 1141, 3-(4-(Diisobutylamino)-2-fluoro-5-(3-(2-methoxypyrimidin-5-yl)ureido)phenyl)pentanoic acid] and `CCOc1ncc(Nc2cc([C@H](CC)CC(=O)O)ccc2N(CC2CC2)CC(C)(C)O)cn1` (single isomer, unassigned) [Example 274] cannot be ordered by IC50: under 5 nM for the first, under 50 nM for the second.

`CCC(CC(=O)O)c1ccc(N2CCC[C@H]2C(C)(C)F)c(Nc2ccc3nc(C)sc3c2)c1` (single isomer, unassigned) [Example 794] and `CC[C@H](CC(=O)O)c1ccc(N2CCC[C@@H]2C(C)(C)O)c(Nc2ccc(Cl)cc2)c1` (single isomer, unassigned) [Example 780] cannot be ordered by IC50: under 50 nM for the first, under 5 nM for the second.

`CCN(c1ccc(C(CC(=O)O)c2ccccc2)cc1Nc1ccc(Cl)cc1F)C1CCOCC1` (single isomer, unassigned) [Example 592, 3-(3-((4-chloro-2-fluorophenyl)amino)-4-(ethyl(tetrahydro-2H-pyran-4-yl)amino)phenyl)-3-phenylpropanoic acid] and `CCOc1ncc(Nc2cc(C(CC(=O)O)c3ccccc3)ccc2N(CC)C2CCOCC2)cn1` (single isomer, unassigned) [Example 588, 3-(3-((2-Ethoxypyrimidin-5-yl)amino)-4-(ethyl(tetrahydro-2H-pyran-4-yl)amino)phenyl)-3-phenylpropanoic acid] cannot be ordered by IC50: over 50 nM for the first, over 50 nM for the second.

Going from `COc1ncc(Nc2cc(C(C)CC(=O)O)ccc2N2CCC[C@H]2C(C)(C)O)cn1` (single isomer, unassigned) [Example 801] to `CCN(c1ccc(C(C)CC(=O)O)cc1Nc1ccc2nc(C)sc2c1)C1CCOCC1` (single isomer, unassigned) [Example 617, 3-(4-(ethyl(tetrahydro-2H-pyran-4-yl)amino)-3-((2-methylbenzo[d]thiazol-6-yl)amino)phenyl)butanoic acid], the IC50 falls from over 50 nM to under 50 nM. The second is the more potent here.

From patent US9790169B2, “IDO inhibitors” (BRISTOL-MYERS SQUIBB COMPANY, priority 2015, dated 2017)
